Results: article PMC9225715, “Development of PD3 and PD3-B for PDEδ inhibition to modulate KRAS activity” (Journal of Enzyme Inhibition and Medicinal Chemistry, 2022)

Target: T1, PDEδ (Homo sapiens, UniProt O43924)
T1 construct: made in house; host or cells: E. coli BL21(DE3)
Test: Affinity pull-down experiment with bacterial lysate overexpressing PDEδ
Format: binding
Details: 100 µM PD3-B on NeutrAvidin resin, bacterial lysate 150 µg, DMSO control
Procedure: We subsequently investigated whether PD3-B (5) specifically identifies PDEδ in the complex proteome of bacterial lysate using an affinity pull-down experiment (Figure 5). 100 µM PD3-B (5) was initially incubated with NeutrAvidin resin before incubation with bacterial lysate (150 µg) overexpressing PDEδ. For elution of the bound proteins, an elution buffer (2% SDS in PBS) was added to the resin and gently eluted at room temperature due to the noncovalent interaction between PD3-B (5) and the target protein PDEδ. The eluted samples were subjected to SDS–PAGE (18% polyacrylamide gel), and then the gels were stained with colloidal Coomassie brilliant blue solution to visualise the bound proteins. DMSO was used as a negative control. […] In addition, the intensity of the PDEδ band increased depending on the concentration of PD3-B (5) (Figure 5(B)).
Figure 5. Affinity pull-down assay of bacterial lysate (PDEδ overexpressed) with PD3-B. NeutrAvidin resin was incubated with PD3-B (100 μM) followed by bacterial lysate (150 μg) in PBS buffer. Then, bound proteins were eluted by adding elution buffer (2% SDS in PBS) at room temperature. The eluted samples were subjected to SDS–PAGE (18% polyacrylamide gel). The gels were stained with colloidal Coomassie brilliant blue solution. (A) Colloidal CBB staining of SDS–PAGE gel. Lys: bacterial lysate, FT: flow through in step 1. […]

T1 sequence (O43924 whole entry): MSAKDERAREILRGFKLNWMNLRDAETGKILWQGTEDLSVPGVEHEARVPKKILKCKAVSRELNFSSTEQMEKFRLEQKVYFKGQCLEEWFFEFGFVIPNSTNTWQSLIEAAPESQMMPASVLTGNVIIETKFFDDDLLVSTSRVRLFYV

SMILES: Cc1ccc(-c2nc3ccccc3c3c(-c4cn(CCOCCOCCOCCNC(=O)CCCC[C@H]5SC[C@@H]6NC(=O)N[C@@H]65)nn4)c4ccccn4c23)cc1 [PD3-B, 5-((3aS,4R,6aR)-2-oxohexahydro-1H-thieno[3,4-d]imidazol-4-yl)-N-(2–(2–(2-(2-(4–(6-(p-tolyl)indolizino[3,2-c]quinolin-12-yl)-1H-1,2,3-triazol-1-yl)ethoxy)ethoxy)ethoxy)ethyl)pentanamide]
- Pull down of PDEδ: PDEδ (20 kDa) was only detected in PD3-B (5)
